Test results from patent US20140255392A1 (BAYER INTELLECTUAL PROPERTY GMBH, priority 2011, published 2014).

molecular target: T1, human kinase Mps-1 (Homo sapiens, UniProt P33981); assay: Mps-1 kinase assay (TR-FRET); type: biochemical; details: N-terminally GST-tagged human full length recombinant Mps-1; 10 μM ATP; 1 μM peptide substrate; 60 min at 22° C.
T1 construct: N-terminally GST-tagged human full length recombinant Mps-1 kinase; GST (N); purchased Invitrogen, Karslruhe, Germany PV4071
T1 sequence (P33981 1-857): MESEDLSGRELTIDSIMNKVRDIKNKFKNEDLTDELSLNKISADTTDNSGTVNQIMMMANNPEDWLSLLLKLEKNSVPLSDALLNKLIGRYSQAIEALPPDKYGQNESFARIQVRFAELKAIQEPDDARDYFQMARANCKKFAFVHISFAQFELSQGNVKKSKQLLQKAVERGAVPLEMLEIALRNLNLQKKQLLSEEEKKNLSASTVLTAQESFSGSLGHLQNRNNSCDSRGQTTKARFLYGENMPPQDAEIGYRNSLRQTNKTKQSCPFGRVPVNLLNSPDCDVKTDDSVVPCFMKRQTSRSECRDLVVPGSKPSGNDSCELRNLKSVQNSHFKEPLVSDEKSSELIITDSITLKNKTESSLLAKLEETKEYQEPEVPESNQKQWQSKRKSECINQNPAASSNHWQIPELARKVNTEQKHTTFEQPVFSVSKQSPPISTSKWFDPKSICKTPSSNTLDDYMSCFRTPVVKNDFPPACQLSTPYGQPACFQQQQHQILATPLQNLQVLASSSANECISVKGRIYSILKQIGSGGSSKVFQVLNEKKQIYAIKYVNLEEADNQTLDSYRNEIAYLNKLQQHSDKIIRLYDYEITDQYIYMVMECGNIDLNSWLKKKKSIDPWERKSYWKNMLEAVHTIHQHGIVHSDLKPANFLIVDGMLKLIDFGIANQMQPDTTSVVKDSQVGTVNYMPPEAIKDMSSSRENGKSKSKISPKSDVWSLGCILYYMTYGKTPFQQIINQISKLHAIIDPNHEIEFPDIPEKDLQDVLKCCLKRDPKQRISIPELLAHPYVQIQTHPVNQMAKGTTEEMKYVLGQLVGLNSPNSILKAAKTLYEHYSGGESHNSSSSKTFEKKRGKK
How it was run: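 Compounds were tested against recombinant full-length Mps-1 bearing an N-terminal GST tag, about 1 nM final, with a biotinylated amide-capped peptide as substrate. Detection reagents were then bound for 1 h at 22° C and the product read by TR-FRET.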

| Compound | IC50 [nM] |
| --- | --- |
| Cc1cc(-c2cnc3c(NCCC(F)(F)F)cc(Oc4cccc(Cl)c4)cn23)ccc1C(=O)NC1(C#N)CC1 [Example 37, 4-{6-(3-chlorophenoxy)-8-[(3,3,3-trifluoropropyl)amino]imidazo[1,2-a]pyridin-3-yl}-N-(1-cyanocyclopropyl)-2-methylbenzamide] | 23 |
| Cc1cc(-c2cnc3c(NCCC(F)(F)F)cc(Oc4ccccc4)cn23)ccc1C(=O)NC1(C#N)CC1 [Example 57, N-(1-cyanocyclopropyl)-2-methyl-4-{6-phenoxy-8-[(3,3,3-trifluoropropyl)amino]imidazo[1,2-a]pyridin-3-yl}benzamide] | 12.6 |
| Cc1ccc(F)cc1Oc1cc(NCCC(F)(F)F)c2ncc(-c3ccc(C(=O)NC4(C5CC5)CC4)c(C)c3)n2c1 [Example 62, N-[1′,1′-bi(cyclopropyl)-1-yl]-4-{6-(5-fluoro-2-methylphenoxy)-8-[(3,3,3-trifluoropropyl)amino]imidazo[1,2-a]pyridin-3-yl}-2-methylbenzamide] | 49.3 |
| Cc1ccc(F)cc1Oc1cc(NCCC(F)(F)F)c2ncc(-c3ccc(C(=O)NC4(C#N)CCC4)c(C)c3)n2c1 [Example 63, N-(1-cyanocyclobutyl)-4-{6-(5-fluoro-2-methylphenoxy)-8-[(3,3,3-trifluoropropyl)amino]imidazor-1,2-aliwridin-3-yl}-2-methylbenzamide] | 59.7 |
| Cc1cc(-c2cnc3c(NCCC(F)(F)F)cc(Oc4ccc(OC(F)(F)F)cc4)cn23)ccc1C(=O)NC1(C#N)CC1 [Example 65, N-(1-cyanocyclopropyl)-2-methyl-4-{6-[4-(trifluoromethoxy)phenoxy]-8-[(3,3,3-trifluoropropyl)amino]imidazo[1,2-a]pyridin-3-yl}benzamide] | 131 |
| Cc1cc(-c2cnc3c(NCCC(F)(F)F)cc(Oc4ccc(OC(F)(F)F)cc4)cn23)ccc1C(=O)NC1(C)CC1 [Example 66, 2-Methyl-N-(1-methylcyclopropyl)-4-{6-[4-(trifluoromethoxy)phenoxy]-8-[(3,3,3-trifluoropropyl)amino]imidazo[1,2-a]pyridin-3-yl}benzamide] | 161 |
| CNC(=O)c1ccc(-c2cnc3c(NCCC(F)(F)F)cc(Oc4ccc(OC(F)(F)F)cc4)cn23)cc1C [Example 67, N,2-dimethyl-4-{6-[4-(trifluoromethoxy)phenoxy]-8-[(3,3,3-trifluoropropyl)amino]imidazo[1,2-a]pyridin-3-yl}benzamide] | 72.8 |
| CCNC(=O)c1ccc(-c2cnc3c(NCCC(F)(F)F)cc(Oc4ccc(OC(F)(F)F)cc4)cn23)cc1C [Example 68, N-ethyl-2-methyl-4-{6-[4-(trifluoromethoxy)phenoxy]-8-[(3,3,3-trifluoropropyl)amino]imidazo[1,2-a]pyridin-3-yl}benzamide] | 124 |
| Cc1cc(-c2cnc3c(NCCC(F)(F)F)cc(Oc4cccc(F)c4F)cn23)ccc1C(=O)NC1(C#N)CC1 [Example 70, N-(1-cyanocyclopropyl)-4-{6-(2,3-difluorophenoxy)-8-[(3,3,3-trifluoropropyl)amino]imidazo[1,2-a]pyridin-3-yl}-2-methylbenzamide] | 3.8 |
| Cc1cc(-c2cnc3c(NCCC(F)(F)F)cc(Oc4cccc(F)c4F)cn23)ccc1C(=O)NC1(C)CC1 [Example 71, 4-{6-(2,3-Difluorophenoxy)-8-[(3,3,3-trifluoropropyl)amino]imidazo[1,2-a]pyridin-3-yl}-2-methyl-N-(1-methylcyclopropyl)benzamide] | 1.8 |
| CNC(=O)c1ccc(-c2cnc3c(NCCC(F)(F)F)cc(Oc4cccc(F)c4F)cn23)cc1C [Example 72, 4-{6-(2,3-Difluorophenoxy)-8-[(3,3,3-trifluoropropyl)amino]imidazo[1,2-a]pyridin-3-yl}-N,2-dimethylbenzamide] | 0.6 |

Second part, the molecule after the results:

| IC50 [nM] | Compound |
| --- | --- |
| 11.1 | Cc1cc(-c2cnc3c(NCCC(F)(F)F)cc(Oc4cccc(Cl)c4)cn23)ccc1C(=O)NC1(C)CC1 [Example 36, 4-{6-(3-chlorophenoxy)-8-[(3,3,3-trifluoropropyl)amino]imidazo[1,2-a]pyridin-3-yl}-2-methyl-N-(1-methylcyclopropyl)benzamide] |
| 0.4 | COc1ccc(Oc2cc(NCCC(F)(F)F)c3ncc(-c4ccc(C(=O)NC5CC5)c(C)c4)n3c2)cc1F [Example 42, N-cyclopropyl-4-{6-(3-fluoro-4-methoxyphenoxy)-8-[(3,3,3-trifluoroprorwl)amino]imidazo[1,2-a]pyridin-3-yl}-2-methylbenzamide] |
| 7.6 | Cc1ccc(F)cc1Oc1cc(NCCC(F)(F)F)c2ncc(-c3ccc(C(=O)NC4CCC4)c(C)c3)n2c1 [Example 47, N-cyclobutyl-4-{6-(5-fluoro-2-methylphenoxy)-8-[(3,3,3-trifluoropropyl)amino]imidazo[1,2-a]pyridin-3-yl}-2-methylbenzamide] |
| 97.6 | Cc1cc(-c2cnc3c(NCCC(F)(F)F)cc(Oc4cccc(F)c4)cn23)ccc1C(=O)NC1(C2CC2)CC1 [Example 49, N-[1,1′-bi(cyclopropyl)-1-0]-4-{6-(3-fluorophenoxy)-8-[(3,3,3-trifluoropropyl)amino]imidazo[1,2-a]pyridin-3-yl}-2-methylbenzamide] |
| 7.3 | Cc1cc(-c2cnc3c(NCCC(F)(F)F)cc(Oc4cccc(F)c4)cn23)ccc1C(=O)NC1(CO)CC1 [Example 50, 4-{6-(3-Fluorophenoxy)-8-[(3,3,3-trifluoropropyl)amino]imidazo[1,2-a]pyridin-3-yl}-N-[1-(hydroxymethyl)cyclopropyl]-2-methylbenzamide] |
| 0.9 | COc1cccc(Oc2cc(NCCC(F)(F)F)c3ncc(-c4ccc(C(=O)NC5CC5)c(C)c4)n3c2)c1 [Example 52, N-cyclopropyl-4-{6-(3-methoxyphenoxy)-8-[(3,3,3-trifluoropropyl)amino]imidazo[1,2-a]pyridin-3-yl}-2-methylbenzamide] |
| 19.5 | COc1cccc(Oc2cc(NCCC(F)(F)F)c3ncc(-c4ccc(C(=O)NC5(C#N)CC5)c(C)c4)n3c2)c1 [Example 53, N-(1-cyanocyclopropyl)-4-{6-(3-methoxyphenoxy)-8-[(3,3,3-trifluoropropyl)amino]imidazo[1,2-a]pyridin-3-yl}-2-methylbenzamide] |
| 16 | COc1cccc(Oc2cc(NCCC(F)(F)F)c3ncc(-c4ccc(C(=O)NC5(C)CC5)c(C)c4)n3c2)c1 [Example 54, 4-{6-(3-Methoxyphenoxy)-8-[(3,3,3-trifluoropropyl)amino]imidazo[1,2-a]pyridin-3-yl}-2-methyl-N-(1-methylcyclopropyl)benzamide] |
| 2.9 | CNC(=O)c1ccc(-c2cnc3c(NCCC(F)(F)F)cc(Oc4cccc(OC)c4)cn23)cc1C [Example 55, 4-{6-(3-Methoxyphenoxy)-8-[(3,3,3-trifluoropropyl)amino]imidazo[1,2-a]pyridin-3-yl}-N,2-dimethylbenzamide] |
| 7.8 | CCNC(=O)c1ccc(-c2cnc3c(NCCC(F)(F)F)cc(Oc4cccc(OC)c4)cn23)cc1C [Example 56, N-ethyl-4-{6-(3-methoxyphenoxy)-8-[(3,3,3-trifluoropropyl)amino]imidazo[1,2-a]pyridin-3-yl}-2-methylbenzamide] |
| 5.7 | Cc1cc(-c2cnc3c(NCCC(F)(F)F)cc(Oc4ccccc4)cn23)ccc1C(=O)NC1(C)CC1 [Example 58, 2-Methyl-N-(1-methylcyclopropyl)-4-{6-phenoxy-8-[(3,3,3-trifluoropropyl)amino]imidazo[1,2-a]pyridin-3-yl}benzamide] |
| 1.5 | CNC(=O)c1ccc(-c2cnc3c(NCCC(F)(F)F)cc(Oc4ccccc4)cn23)cc1C [Example 59, N,2-dimethyl-4-{6-phenoxy-8-[(3,3,3-trifluoropropyl)amino]imidazo[1,2-a]pyridin-3-yl}benzamide] |
| 2.3 | CCNC(=O)c1ccc(-c2cnc3c(NCCC(F)(F)F)cc(Oc4ccccc4)cn23)cc1C [Example 60, N-ethyl-2-methyl-4-{6-phenoxy-8-[(3,3,3-trifluoropropyl)amino]imidazo[1,2-a]pyridin-3-yl}benzamide] |
| 8.6 | Cc1cc(-c2cnc3c(NCCC(F)(F)F)cc(Oc4ccc(OC(F)(F)F)cc4)cn23)ccc1C(=O)NC1CC1 [Example 64, N-cyclopropyl-2-methyl-4-{6-[4-(trifluoromethoxy)phenoxy]-8-[(3,3,3-trifluoropropyl)amino]imidazo[1,2-a]pyridin-3-yl}benzamide] |
| 1 | COc1ccc(Oc2cc(NCCC(F)(F)F)c3ncc(-c4ccc(C(=O)NC5CC5)c(C)c4)n3c2)c(F)c1 [Example 69, N-cyclopropyl-4-{6-(2-fluoro-4-methoxyphenoxy)-8-[(3,3,3-trifluoropropyl)amino]imidazo[1,2-a]pyridin-3-yl}-2-methylbenzamide] |
